# Results as given in patent publication US6670354B2, “Methods to enhance white blood cell count” (AnorMed, Inc., priority 1999, dated 2003).
# Columns and labels:
# [1] = test system: white blood cell (WBC) count
# Method: Eleven human patients having initial white blood cell counts of 4,000-6,500 cells/mm^3 were used in the study. An intravenous dosing solution of AMD3100 (i.e., 1,1′-[1,4-phenylene-bis(methylene)]-bis-1,4,8,11-tetraazacyclotetradecane) were prepared from a stock solution which is a 1 mg/ml 1:10 dilution of a concentrate in 0.9% saline (normal saline) under sterile conditions. Aliquots from this stock solution were added to 50-ml bags of 0.9% saline for intravenous injection in amounts to achieve the desired dosage levels (10 μg/kg-80 μg/kg).
# The subjects described in this example already contained an indwelling peripheral intravenous catheter. The prescribed amount of AMD3100 was administered over 15 minutes by intravenous fusion in a single dose. Blood samples were obtained prior to the dose, and at various times up to 24 hours after dose administration.
# Eleven human subjects received intravenous administration of AMD-3100 at doses 10, 20, 40, and 80 μg/kg. Five subjects also received a single subcutaneous injection of AMD-3100 at doses of 40 and 80 μg/kg. Three patients were administered dosages of 10 μg/kg (open circles); 3 patients were administered dosages of 20 μg/kg (solid circles); 3 patients were administered 40 μg/kg (open triangles); and 2 patients were administered 80 μg/kg (closed triangles).
# [2] = test system: white blood cell (WBC) count; remark: listed apart in the source
# Method: Eight patients received AMD-3100 at infusion dose rates of 2.5 μg/kg/hr (patients 1-4) and 5.0 μg/kg/hr (patients 5-8).
smiles,measurement,setting,value
"c1cc(CN2CCCNCCNCCCNCC2)ccc1CN1CCCNCCNCCCNCC1 [AMD3100, 1,1′-[1,4-phenylene-bis(methylene)]-bis-1,4,8,11-tetraazacyclotetradecane]",effect on white blood cell count after administration,"[1]; all 11 patients, 10, 20, 40, 80 μg/kg i.v. over 15 minutes, single dose, over the succeeding 5-10 hours, tapered off after about 24 hours, not returning to original level",marked increase in white blood cell count
same,"white blood cell count, peak value","[1]; one patient who received 80 μg/kg i.v., from 6,000 cells/mm^3 before dose","19,000 cells/mm^3"
same,white blood cell count after increase,"[1]; patient showing the least response, 20 μg/kg i.v., from about 6,300 cells/mm^3","about 9,000 cells/mm^3"
same,time for WBC counts to return to baseline after discontinuation of the infusion,"[2]; continuous infusion 2.5 or 5.0 μg/kg/hr for up to 10 days, HIV-infected patients",7 days
same,ability to enhance WBC count in human patients,[2]; following single dose or with continuous infusion,consistently able to enhance WBC count
